Experimental data from publication PMC7180728, “Novel Anthraquinone Compounds Inhibit Colon Cancer Cell Proliferation via the Reactive Oxygen Species/JNK Pathway” (Molecules, 2020).

What was measured:
HCT116 cells = assay: Annexin V/PI apoptosis assay by flow cytometry; type: cell-based, human; details: 24 h, control 0.06%
Procedure: Natural anthraquinones, such as rubiadin, physcion, emodin and soranjidiol, have been reported to induce apoptosis in tumor cells. Therefore, after detecting the effect of 8a on tumor cell proliferation, we investigated correlation between the anticancer activity of compound 8a and apoptosis. The effects of compound 8a treatment on HCT116 cell apoptosis were detected by flow cytometry following Annexin V/PI staining.
HCT116 cells were added to a 6-well plate (5 × 10^6/well). After attachment, the cells were treated with 8a for 24 h. Then, the cells were collected and centrifuged (10,000 g × 5 min). Cells were washed once with 1 mL of PBS. Cells were suspended in 500 μL binding buffer (containing 5 μL Annexin V-FITC and 1 μL propidium iodide [PI]) and incubated for 30 min in the dark. Apoptosis cells were detected by flow cytometry (FACSCalibur, BD, The United States).

HL-7702 = assay: MTT cell proliferation assay, normal liver cells HL-7702; type: cell-based; details: L02, HL-7702 normal human hepatocyte, 48 h
Procedure: The effects of the synthesized amide anthraquinone derivatives on the proliferative activity of eight human cancerous cell lines (EC9706, MCF-7, SGC-7901, HepG2, QBC939, HeLa, HCT116 and SW480) in addition to two normal human cell lines (colorectal FHC and liver HL7702) were evaluated using the standard MTT assay.
The human esophageal cancer cell line EC9706 was obtained from Cancer Hospital and Institute by Prof. Ming Rong Wang, Chinese Academy Medical of Sciences. The human colorectal carcinoma cell lines HCT116 and SW480, hepatoma cell line HepG2, cervical carcinoma cell line HeLa, breast cancer cell line MCF-7, gastric cancer cell line SGC-7901, cholangiocarcinoma cell line QBC939, normal fetal colon cell line FHC and liver cell line HL-7702 were obtained from the Cell Bank of the Shanghai Chinese Academy of Sciences. All cells were cultured in RPMI 1640 medium containing 100 U/mL penicillin and streptomycin and 10% fetal bovine serum and maintained at 37°C under a 5% CO2 atmosphere.
We analyzed the inhibitory effects of eight anthraquinone-amino acid derivatives on the proliferation of eight tumor cell lines and two normal cell lines in vitro using MTT assays. Cells were added to a 96-well plate with (5,000 cells per well in 100 µL RPMI-1640 medium). Cells were treated with different concentrations (10–100 μg/mL) of 8a–8h for 48 h and then incubated with 20 μL MTT (5 mg/mL) for another 4 h at 37°C. DMSO (150 μL) was then added to each well to dissolve the formazan crystals. The absorbance of each well was read at 490 nm on a microtiter plate ELISA reader. The mean values were obtained from a minimum of three parallel experiments. IC50 values were calculated.

What does the source list for CC(C)CC(NC(=O)c1ccc2c(c1[N+](=O)[O-])C(=O)c1ccccc1C2=O)C(=O)O (stereo not shown) [Compound 8a, N-[(9,10-dihydro-1-nitro-9,10-dioxo-2-anthracenyl)carbonyl-leucine]]?
rate of apoptosis (HCT116 cells; 10 μg/mL): 11.24%; rate of apoptosis (HCT116 cells; 20 μg/mL): 18.97%; rate of apoptosis (HCT116 cells; 40 μg/mL): 26.94%; IC50 (HL-7702): > 1000 mg/L
